Reference: ChEMBL document CHEMBL1201862, “PubChem BioAssay data set” (2004)
Calls of active or inactive are those of the source.

Key:
[1] = target: Adenosylmethionine-8-amino-7-oxononanoate aminotransferase (Mycobacterium tuberculosis, UniProt P9WQ81); experiment: Mycobacterium tuberculosis BioA enzyme inhibitor Measured in Biochemical System Using Plate Reader - 2163-02_Inhibitor_Dose_CherryPick_Activity.; format: functional, Mycobacterium tuberculosis UT205
BJ [2] = experiment: BJ-TERT-LT-ST fibroblast viability loss – cell-based, RAS-independent, luminescence, dose response (AID 1935); format: functional; settings: Homo sapiens;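 note: BJ fibroblasts immortalized with TERT plus LT and ST oncogenes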
BJ [3] = experiment: BJ-TERT fibroblast viability loss – cell-based, RAS-independent, luminescence, dose response (AID 1933); format: functional; settings: Homo sapiens
[4] = DRD fibroblast viability loss – cell-based, non-viral oncogenic, luminescence, dose response (AID 1934); format: functional; settings: Homo sapiens
BJ [5] = experiment: cells; format: functional, cell-based; settings: Homo sapiens
BJ [6] = experiment: growth inhibition of engineered Ras-driven BJ cells – cell-based, alamar blue fluorescence, cherrypicked samples, dose response (AID 2631); format: functional; settings: Homo sapiens;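 note: confirmatory dose-response assay in RAS-dependent BJ fibroblasts engineered with TERT, LT and ST, with cytotoxicity read by fluorescence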
[7] = Luminescence Cell-Based Dose Retest to Confirm Inhibitors of Cancer Stem Cells. [Related pubchem assays (depositor defined):AID2717, AID2721]; format: functional; settings: Homo sapiens
[8] = target: T1, Corticotropin-releasing factor receptor 2/Corticotropin-releasing factor-binding protein (Homo sapiens, UniProt P24387+Q13324); experiment: activators of CRF receptor 2 with binding protein – uHTS hits, confirmation (AID 602473); format: functional; settings: read-out: EC50_Mean
T1 sequence (Q13324 whole entry): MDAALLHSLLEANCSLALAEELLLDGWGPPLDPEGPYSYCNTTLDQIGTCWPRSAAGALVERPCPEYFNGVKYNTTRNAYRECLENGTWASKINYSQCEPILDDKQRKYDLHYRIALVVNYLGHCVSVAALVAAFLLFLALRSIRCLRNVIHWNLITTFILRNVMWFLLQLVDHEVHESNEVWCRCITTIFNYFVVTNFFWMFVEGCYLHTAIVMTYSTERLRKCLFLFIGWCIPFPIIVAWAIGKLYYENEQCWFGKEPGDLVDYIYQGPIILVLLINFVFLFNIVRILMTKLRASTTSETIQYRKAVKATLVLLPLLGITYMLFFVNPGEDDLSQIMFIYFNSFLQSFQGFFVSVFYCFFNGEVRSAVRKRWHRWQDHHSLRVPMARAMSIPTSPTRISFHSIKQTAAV
T1 sequence (P24387 whole entry): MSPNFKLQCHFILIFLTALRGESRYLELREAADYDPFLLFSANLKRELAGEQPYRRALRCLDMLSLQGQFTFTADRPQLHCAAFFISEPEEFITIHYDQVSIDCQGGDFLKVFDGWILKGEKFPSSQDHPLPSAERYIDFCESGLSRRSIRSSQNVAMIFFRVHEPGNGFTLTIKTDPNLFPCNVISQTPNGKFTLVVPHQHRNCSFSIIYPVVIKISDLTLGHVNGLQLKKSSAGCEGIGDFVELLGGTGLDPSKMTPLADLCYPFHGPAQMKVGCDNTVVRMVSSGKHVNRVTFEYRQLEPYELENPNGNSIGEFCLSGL

[9] = target: T1, Corticotropin-releasing factor receptor 2/Corticotropin-releasing factor-binding protein; experiment: Dose Response confirmation of uHTS hits for small molecule antagonists of the CRF-binding protein and CRF-R2 receptor complex.; format: functional; settings: read-out: IC50_Mean
[10] = blockers of CRF-binding protein–CRF-R2 complex – cell-based, uHTS hits, 384-well, dose response (AID 651639); format: functional, Homo sapiens; settings: read-out: IC50_Mean
[11] = target: T2, Nuclear receptor subfamily 0 group B member 1 (Homo sapiens, UniProt P51843); format: functional, cell-based;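 note: HEK293T cells transfected with SF-1 and DAX-1 plus StAR promoter luciferase reporter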
T2 sequence (P51843 whole entry): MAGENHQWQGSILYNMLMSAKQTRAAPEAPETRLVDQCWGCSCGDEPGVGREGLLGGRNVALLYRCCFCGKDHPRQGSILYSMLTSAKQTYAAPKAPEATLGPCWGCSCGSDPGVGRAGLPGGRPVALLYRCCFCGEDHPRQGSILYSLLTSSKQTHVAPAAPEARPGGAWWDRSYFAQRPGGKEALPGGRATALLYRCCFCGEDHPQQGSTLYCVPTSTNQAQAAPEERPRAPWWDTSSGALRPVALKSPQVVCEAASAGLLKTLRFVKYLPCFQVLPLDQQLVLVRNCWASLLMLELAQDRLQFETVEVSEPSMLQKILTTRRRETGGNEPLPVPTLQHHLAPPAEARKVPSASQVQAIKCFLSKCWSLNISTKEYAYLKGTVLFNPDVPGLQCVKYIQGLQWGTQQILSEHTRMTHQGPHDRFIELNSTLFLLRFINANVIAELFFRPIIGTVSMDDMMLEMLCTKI

cells = format: functional, cell-based
INS1 = experiment: INS-1E survival protection against cytokine death – cell-based, luminescence, retest, dose response (AID 449756); format: functional; settings: Rattus norvegicus;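 note: cell death triggered by IL-1 beta plus TNF-alpha plus IFN-gamma mixture; protective hits raise ATP signal compared with cytokine alone wells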
[12] = target: T3, Apoptotic protease-activating factor 1 (Homo sapiens, UniProt O14727); format: functional
T3 sequence (O14727 whole entry): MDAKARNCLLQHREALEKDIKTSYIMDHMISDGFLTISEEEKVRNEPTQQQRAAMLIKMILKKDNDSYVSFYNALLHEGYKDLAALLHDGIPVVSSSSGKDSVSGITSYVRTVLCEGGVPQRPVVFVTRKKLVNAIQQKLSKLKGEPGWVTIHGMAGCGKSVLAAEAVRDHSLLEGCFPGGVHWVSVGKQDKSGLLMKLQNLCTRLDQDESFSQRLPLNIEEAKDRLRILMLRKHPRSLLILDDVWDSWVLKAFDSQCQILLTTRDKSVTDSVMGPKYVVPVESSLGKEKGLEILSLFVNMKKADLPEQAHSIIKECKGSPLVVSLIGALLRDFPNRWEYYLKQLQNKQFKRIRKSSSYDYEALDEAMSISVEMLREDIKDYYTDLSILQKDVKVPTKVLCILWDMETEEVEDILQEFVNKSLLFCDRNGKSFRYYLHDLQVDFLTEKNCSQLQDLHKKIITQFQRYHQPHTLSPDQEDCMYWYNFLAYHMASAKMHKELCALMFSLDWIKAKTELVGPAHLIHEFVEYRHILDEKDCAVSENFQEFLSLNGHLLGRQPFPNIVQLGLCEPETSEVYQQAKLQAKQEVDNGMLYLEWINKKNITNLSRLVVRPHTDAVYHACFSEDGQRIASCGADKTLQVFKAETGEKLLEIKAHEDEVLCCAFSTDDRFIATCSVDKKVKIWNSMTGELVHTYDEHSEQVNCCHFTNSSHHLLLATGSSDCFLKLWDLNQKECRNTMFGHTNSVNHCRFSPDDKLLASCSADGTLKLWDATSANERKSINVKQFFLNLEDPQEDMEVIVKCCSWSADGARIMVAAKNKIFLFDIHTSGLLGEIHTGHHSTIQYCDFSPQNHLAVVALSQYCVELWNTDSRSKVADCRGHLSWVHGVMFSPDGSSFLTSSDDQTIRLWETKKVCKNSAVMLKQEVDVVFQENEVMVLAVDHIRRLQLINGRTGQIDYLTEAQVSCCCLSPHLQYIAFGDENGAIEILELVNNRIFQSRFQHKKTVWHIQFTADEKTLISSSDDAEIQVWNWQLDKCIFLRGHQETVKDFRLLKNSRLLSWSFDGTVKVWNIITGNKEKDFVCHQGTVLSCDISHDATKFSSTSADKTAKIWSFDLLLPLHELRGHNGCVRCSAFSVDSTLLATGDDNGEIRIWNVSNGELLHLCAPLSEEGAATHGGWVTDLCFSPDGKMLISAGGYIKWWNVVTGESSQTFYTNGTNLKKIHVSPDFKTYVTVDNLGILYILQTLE

[13] = target: T4, Testis-specific serine/threonine-protein kinase 2 (Homo sapiens, UniProt Q96PF2); format: functional;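 note: part of the Navigating the Kinome panel, target entry STK22B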
T4 sequence (Q96PF2 whole entry): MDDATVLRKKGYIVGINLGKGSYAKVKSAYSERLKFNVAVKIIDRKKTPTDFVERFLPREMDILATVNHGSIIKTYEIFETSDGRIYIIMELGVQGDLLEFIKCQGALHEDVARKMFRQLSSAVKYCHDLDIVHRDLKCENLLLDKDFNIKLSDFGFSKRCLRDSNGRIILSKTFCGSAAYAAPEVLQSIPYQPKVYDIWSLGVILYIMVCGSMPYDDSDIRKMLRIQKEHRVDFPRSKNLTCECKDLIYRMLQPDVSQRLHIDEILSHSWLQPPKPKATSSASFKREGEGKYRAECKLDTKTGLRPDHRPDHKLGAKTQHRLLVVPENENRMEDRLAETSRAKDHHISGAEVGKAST

[14] = target: T5, Tyrosine-protein kinase JAK3 (Homo sapiens, UniProt P52333); format: functional
T5 sequence (P52333 whole entry): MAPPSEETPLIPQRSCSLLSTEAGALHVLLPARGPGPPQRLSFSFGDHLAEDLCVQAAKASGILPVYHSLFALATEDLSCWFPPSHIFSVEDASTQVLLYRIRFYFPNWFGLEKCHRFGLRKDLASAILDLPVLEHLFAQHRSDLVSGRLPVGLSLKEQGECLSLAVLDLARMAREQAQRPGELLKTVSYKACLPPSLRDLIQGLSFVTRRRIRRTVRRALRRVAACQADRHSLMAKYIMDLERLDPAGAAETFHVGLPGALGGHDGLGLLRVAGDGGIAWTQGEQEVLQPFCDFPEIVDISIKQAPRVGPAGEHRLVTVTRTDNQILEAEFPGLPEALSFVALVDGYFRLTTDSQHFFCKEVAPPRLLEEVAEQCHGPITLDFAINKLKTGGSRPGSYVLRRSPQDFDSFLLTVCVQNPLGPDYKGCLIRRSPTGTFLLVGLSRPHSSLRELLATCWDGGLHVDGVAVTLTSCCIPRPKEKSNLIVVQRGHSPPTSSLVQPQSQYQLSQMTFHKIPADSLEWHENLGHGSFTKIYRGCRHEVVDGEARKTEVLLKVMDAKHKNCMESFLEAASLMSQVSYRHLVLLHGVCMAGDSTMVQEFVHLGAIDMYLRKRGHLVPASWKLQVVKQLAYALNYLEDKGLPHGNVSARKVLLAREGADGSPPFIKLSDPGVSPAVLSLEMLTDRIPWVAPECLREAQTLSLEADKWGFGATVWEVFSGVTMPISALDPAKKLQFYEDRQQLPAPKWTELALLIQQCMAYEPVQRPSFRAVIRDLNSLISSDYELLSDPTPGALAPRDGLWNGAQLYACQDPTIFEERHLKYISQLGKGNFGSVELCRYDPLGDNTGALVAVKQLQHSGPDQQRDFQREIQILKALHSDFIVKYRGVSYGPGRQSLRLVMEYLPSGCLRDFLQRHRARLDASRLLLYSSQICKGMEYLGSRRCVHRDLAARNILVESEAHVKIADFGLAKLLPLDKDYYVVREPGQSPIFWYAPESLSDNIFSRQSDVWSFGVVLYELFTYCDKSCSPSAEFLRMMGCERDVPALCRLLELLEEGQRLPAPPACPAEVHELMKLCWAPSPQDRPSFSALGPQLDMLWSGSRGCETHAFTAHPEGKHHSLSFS

Adenosylmethionine-8-amino-7-oxononanoate aminotransferase, sequence (P9WQ81 whole entry): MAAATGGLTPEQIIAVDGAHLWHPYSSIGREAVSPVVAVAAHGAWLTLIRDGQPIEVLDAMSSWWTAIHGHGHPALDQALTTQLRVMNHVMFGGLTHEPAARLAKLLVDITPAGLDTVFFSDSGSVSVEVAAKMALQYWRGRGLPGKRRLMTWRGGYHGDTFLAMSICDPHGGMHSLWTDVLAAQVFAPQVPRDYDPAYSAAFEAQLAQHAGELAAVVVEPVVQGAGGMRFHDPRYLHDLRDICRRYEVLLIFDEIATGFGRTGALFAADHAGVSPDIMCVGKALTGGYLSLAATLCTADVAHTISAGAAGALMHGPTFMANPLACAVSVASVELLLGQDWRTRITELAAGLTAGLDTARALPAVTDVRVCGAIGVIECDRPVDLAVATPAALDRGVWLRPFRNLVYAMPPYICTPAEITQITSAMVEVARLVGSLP

Which AC50 [1] does the source give for `COc1ccc(C(=O)C2CCCN(C(=O)c3ccc(C(C)=O)s3)C2)c(C)c1` (stereo not given) here?
Its AC50 is 1.7 µM (active).

With `CN[C@H]1CCc2cc(OC)c(OC)c(OC)c2-c2ccc(N(C)CC(OC)OC)c(=O)cc21` as the compound, how does the EC50 (BJ [2]) read?
The EC50 was 2.98 µM (inconclusive).

And the EC50 (BJ [3])?
The EC50 was 3.42 µM (active).

What about the EC50 [4] of the same compound?
Its EC50 is 2.86 µM (active).

And the EC50 (BJ [5])?
Its EC50 is 21.4 µM (active).

And the EC50 (BJ [6])?
Its EC50 is 0.578 µM (inconclusive).

What about the AC50 [7] of the same compound?
The AC50 was 1.86 µM (active).

Which results are given for `CC1(C)CC(=O)C(C2C3=C(CC(C)(C)CC3=O)Oc3ccc4ccccc4c32)C(=O)C1` (stereo not given)?
EC50 [8]: 31.8 µM (active); IC50 [9]: 14.8 µM (active); IC50 [10]: > 20 µM (inactive)

With `COc1ccc(C(=O)Nc2nnc(SCC(=O)NC3CCCC3)s2)c(OC)c1` as the compound, how does the IC50 [11] read?
Its IC50 is > 0.0926 µM (active).

And the IC50 (cells)?
The IC50 was > 67.5 µM (inactive).

Which EC50 [8] does the source give for `Cc1cccc(NC(=O)c2cccc([N+](=O)[O-])c2O)c1C` here?
Its EC50 is > 53 µM (inactive).

And the IC50 [9]?
The IC50 was 5.93 µM (active).

And the IC50 [10]?
Its IC50 is > 20 µM (inactive).

With `CCCCCn1cc[n+](C2=C([N-]S(=O)(=O)c3ccc(Cl)cc3)C(=O)c3ccccc3C2=O)c1` as the compound, how does the AC50 (INS1) read?
Its AC50 is 3.09 µM (active).

What about the IC50 [12] of the same compound?
Its IC50 is 30.2 µM (active).

With `CCCOC(=O)c1cccc(NC(=O)c2cccnc2)c1` as the compound, how does the AC50 [1] read?
Its AC50 is 6.09 µM (active).

For `Cc1[nH]nc2ccc(-c3cncc(OCC(N)Cc4ccccc4)c3)cc12` (stereo not given), which Ki [13] is on record?
Its Ki is > 1.58 µM (inactive).

What about the Ki [14] of the same compound?
The Ki was > 1.58 µM (inactive).
